Measurements: patent US8778919B2, “Cyclic anilino—pyridinotriazines” (Janssen Pharmaceutica NV, priority 2005, dated 2014)

Legend:
CDK2/cyclinA (h) = CDK2/cyclinA (h) (Homo sapiens, UniProt P24941); experiment: Kinase profiling C3.3 CDK2/cyclinA human; format: biochemical; conditions: test concentration of 10^−6 M
Procedure: (§1) The in vitro inhibition of a panel of kinases was assessed using either the glass-fiber filter technology as described by Davies, S. P. et al., Biochem J. (2000), 351; p. 95-105. In the glass-fiber filter technology the activity of the kinase of interest is measured using an appropriate substrate that is incubated with the aforementioned kinase protein in the presence of (^33P) radiolabeled ATP. (^33P) Phosporylation of the substrate is subsequently measured as radioactivity bound on a glassfiber-filter.
(§2) All kinases are pre-diluted to a 10× working concentration prior to addition into the assay. The composition of the dilution buffer for each kinase is detailed below.
(§3) All substrates are dissolved and diluted to working stocks in de-ionised water, apart from histone H1 that is stored in 10× working stock in 20 mM MOPS pH 7.4.
(§4) In a final reaction volume of 25 μl, CDK2/cyclinA (h) (5-10 mU) is incubated with 8 mM MOPS pH 7.0, 0.2 mM EDTA, 0.1 mg/ml histone H1, 10 mM MgAcetate and [γ-^33P-ATP] (specific activity approx. 500 cpm/pmol, concentration as required). The reaction is initiated by the addition of the MgATP mix. After incubation for 40 minutes at room temperature, the reaction is stopped by the addition of 5 μl of a 3% phosphoric acid solution. 10 μl of the reaction is then spotted onto a P30 filtermat and washed three times for 5 minutes in 75 mM phosphoric acid and once in methanol prior to drying and scintillation counting.

Chang cells = experiment: GSK-3 cellular assay (C2): 14C-D-glucose incorporation into glycogen; format: cell-based; conditions: increase in D-glucose incorporation into glycogen, test concentration of 10^−6 M
Procedure: Test compounds were tested for their ability to increase the incorporation of ^14C-D-glucose into glycogen in living cells. To do this, Chang cells (360,000 cells/well) were cultured in 0.5 ml of MEM Rega 3 medium supplemented with 10% fetal calf serum, 1% L-glutamine and 2% sodium carbonate. After 3 days, cells were washed with 0.5 ml of phosphate-buffered saline and overlayed with 1 ml of serum- and glucose-free DMEM medium. Then, 2 μl of compound in DMSO and 50 μl substrate (3 mM glucose and 0.5 μCi ^14C-D-glucose were added and the cultures were incubated for 90 min. Cells were then extracted with 0.5 ml of 20% KOH for 60 min at 37° C. and the cell lysates were transferred to 10 ml tubes containing 300 μl of 1 mg/ml glycogen as […]. Following the addition of 2 ml ethanol, total glycogen was precipitated overnight at −20° C. and the precipitates were recovered by centrifugation. Precipitates were then resuspended in 1 ml of water and transferred to scintillation counter vials. and the amount of ^14C-D-glucose incorporation into glycogen was measured by scintillation counting. Scores for the compounds according to the invention, were obtained at a test concentration of 10^−6 M. Score 1=10-30% increase, Score 2=30-60% increase, Score 3=60-80% increase and Score 4=>80% increase in D-glucose incorporation.

GSK-3α = GSK-3α (Homo sapiens, UniProt P49840); experiment: GSK-3 kinase assay (C1), GSK-3α; format: biochemical; conditions: 1 μM ATP, read-out: C1 Score α
Procedure: (§5) In vitro GSK-3 assays were performed at room temperature in a 100 μl reaction volume of 25 mM Tris (pH 7.4) containing 10 mM MgCl2.6H2O, 1 mM DTT, 0.1 mg/ml BSA, 5% glycerol, 5.7 ng/μl GSK-3β or 0.25 ng/μl GSK-3α, 5 μM biotinylated CREB peptide, 1 μM ATP, 0.85 μCi/ml ^33P-ATP and a suitable amount of a test compound. After one hour, the reaction was terminated by adding 70 μl of Stop mix (0.1 mM ATP, 5 mg/ml streptavidin coated PVT SPA beads, pH 11.0). The beads were allowed to settle overnight and the radioactivity attached to the beads was counted in a microtiter plate scintillation counter and compared with the results obtained in a control experiment (without the presence of a test compound) in order to determine the percentage of GSK-3 inhibition. The IC50 value, i.e. the concentration (M) of the test compound at which 50% of GSK-3 is inhibited, was calculated from the dose response curve obtained by performing the above-described GSK-3 assay in the presence of different amounts of the test compound. Score 1=pIC50 value<6, Score 2=pIC50 value from 6-7, Score 3=pIC50 value from 7-8, Score 4=pIC50 value>8.

CDK1/cyclinB (h) = CDK1/cyclinB (h) (Homo sapiens, UniProt P06493); experiment: Kinase profiling C3.2 CDK1/cyclinB human; format: biochemical; conditions: test concentration of 10^−6 M
Procedure: as §1, §2, §3
as §4, with “CDK1/cyclinB” for “CDK2/cyclinA”

CDK3/cyclinE (h) = CDK3/cyclinE (h) (Homo sapiens, UniProt Q00526); experiment: Kinase profiling C3.5 CDK3/cyclinE human; format: biochemical; conditions: test concentration of 10^−6 M
Procedure: as §1, §2, §3
as §4, with “CDK3/cyclinE” for “CDK2/cyclinA”

CDK5/p35 human = CDK5/p35 human (Homo sapiens, UniProt Q00535); experiment: Kinase profiling C3.6 CDK5/p35 human; format: biochemical; conditions: CDK5/p35, test concentration of 10^−6 M
Procedure: as §1, §2, §3
as §4, with “CDK5/p35 human” for “CDK2/cyclinA (h)”

CDK2/cyclinE (h) = CDK2/cyclinE (h) (Homo sapiens, UniProt P24941); experiment: Kinase profiling C3.4 CDK2/cyclinE human; format: biochemical; conditions: test concentration of 10^−6 M
Procedure: as §1, §2, §3
as §4, with “CDK2/cyclinE” for “CDK2/cyclinA”

CDK7/cyclinH/MAT1 (h) = CDK7/cyclinH/MAT1 (h) (Homo sapiens, UniProt P50613); experiment: Kinase profiling C3.8 CDK7/cyclinH/MAT1 human; format: biochemical; conditions: CDK7/cyclinH/MAT1, test concentration of 10^−6 M
Procedure: as §1, §2, §3
as §4, with “CDK7/cyclinH/MAT1” for “CDK2/cyclinA”, “500 μM peptide,” for “0.1 mg/ml histone H1,”

GSK-3β = GSK-3β (Homo sapiens, UniProt P49841); experiment: GSK-3 kinase assay (C1), GSK-3β; format: biochemical; conditions: 1 μM ATP, read-out: C1 Score β
Procedure: as §5

CDK6/cyclinD3 human = CDK6/cyclinD3 human (Homo sapiens, UniProt Q00534); experiment: Kinase profiling C3.7 CDK6/cyclinD3 human; format: biochemical; conditions: CDK6/cyclinD3, test concentration of 10^−6 M
Procedure: as §1, §2, §3
as §4, with “CDK6/cyclinD3 human” for “CDK2/cyclinA (h)”

Chain of CDK1/cyclinB (h) (P06493 whole entry): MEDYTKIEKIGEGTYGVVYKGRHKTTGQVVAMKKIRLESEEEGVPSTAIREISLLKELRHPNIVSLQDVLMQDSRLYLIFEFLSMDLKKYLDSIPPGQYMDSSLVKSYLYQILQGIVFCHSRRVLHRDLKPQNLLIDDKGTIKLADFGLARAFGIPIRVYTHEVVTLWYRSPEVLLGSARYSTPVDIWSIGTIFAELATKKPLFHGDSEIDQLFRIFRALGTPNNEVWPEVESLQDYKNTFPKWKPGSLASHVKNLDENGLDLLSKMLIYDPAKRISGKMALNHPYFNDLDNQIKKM
Chain of CDK1/cyclinB (h) (P14635 whole entry partner): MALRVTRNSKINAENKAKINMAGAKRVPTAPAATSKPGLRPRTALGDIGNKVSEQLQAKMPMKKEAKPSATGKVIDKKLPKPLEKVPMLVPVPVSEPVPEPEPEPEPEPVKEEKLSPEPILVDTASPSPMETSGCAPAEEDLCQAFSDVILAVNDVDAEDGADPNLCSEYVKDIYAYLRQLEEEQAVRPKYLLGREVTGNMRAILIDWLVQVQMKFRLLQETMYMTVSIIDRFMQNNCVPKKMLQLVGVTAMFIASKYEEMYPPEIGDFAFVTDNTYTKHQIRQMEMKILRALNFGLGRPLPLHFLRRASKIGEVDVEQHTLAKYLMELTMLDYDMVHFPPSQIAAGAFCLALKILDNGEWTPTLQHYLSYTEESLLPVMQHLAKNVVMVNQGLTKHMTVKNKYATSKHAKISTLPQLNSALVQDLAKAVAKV
Chain of GSK-3β (P49841 whole entry, species assumed): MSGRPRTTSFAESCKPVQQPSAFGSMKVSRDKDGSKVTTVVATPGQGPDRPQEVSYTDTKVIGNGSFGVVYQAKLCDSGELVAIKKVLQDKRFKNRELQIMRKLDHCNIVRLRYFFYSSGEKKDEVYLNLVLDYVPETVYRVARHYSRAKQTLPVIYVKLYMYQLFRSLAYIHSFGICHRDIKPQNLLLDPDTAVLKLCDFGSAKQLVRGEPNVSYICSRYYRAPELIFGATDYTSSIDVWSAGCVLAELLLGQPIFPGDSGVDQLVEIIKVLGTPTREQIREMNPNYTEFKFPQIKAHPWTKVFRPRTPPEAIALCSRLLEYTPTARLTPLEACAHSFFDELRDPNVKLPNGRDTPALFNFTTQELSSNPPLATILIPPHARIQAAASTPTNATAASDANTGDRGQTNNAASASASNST
Chain of CDK6/cyclinD3 human (Q00534 whole entry): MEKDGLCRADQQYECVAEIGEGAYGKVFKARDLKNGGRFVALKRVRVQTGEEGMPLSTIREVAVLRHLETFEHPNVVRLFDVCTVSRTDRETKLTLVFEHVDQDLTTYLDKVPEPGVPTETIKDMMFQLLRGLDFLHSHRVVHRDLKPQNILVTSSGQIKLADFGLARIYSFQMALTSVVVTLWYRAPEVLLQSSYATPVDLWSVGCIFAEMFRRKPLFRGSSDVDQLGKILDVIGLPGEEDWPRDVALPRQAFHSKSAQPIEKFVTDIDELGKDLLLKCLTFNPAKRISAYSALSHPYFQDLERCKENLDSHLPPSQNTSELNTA
Chain of CDK6/cyclinD3 human (P30281 whole entry partner): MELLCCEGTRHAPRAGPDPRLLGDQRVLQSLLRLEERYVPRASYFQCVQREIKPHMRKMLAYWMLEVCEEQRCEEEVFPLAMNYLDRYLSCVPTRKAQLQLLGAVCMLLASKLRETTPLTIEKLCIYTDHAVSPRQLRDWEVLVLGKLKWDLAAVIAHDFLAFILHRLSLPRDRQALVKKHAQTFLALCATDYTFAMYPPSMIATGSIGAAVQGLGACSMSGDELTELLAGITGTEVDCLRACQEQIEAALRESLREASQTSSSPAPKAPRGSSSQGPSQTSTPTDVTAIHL
Chain of GSK-3α (P49840 whole entry, species assumed): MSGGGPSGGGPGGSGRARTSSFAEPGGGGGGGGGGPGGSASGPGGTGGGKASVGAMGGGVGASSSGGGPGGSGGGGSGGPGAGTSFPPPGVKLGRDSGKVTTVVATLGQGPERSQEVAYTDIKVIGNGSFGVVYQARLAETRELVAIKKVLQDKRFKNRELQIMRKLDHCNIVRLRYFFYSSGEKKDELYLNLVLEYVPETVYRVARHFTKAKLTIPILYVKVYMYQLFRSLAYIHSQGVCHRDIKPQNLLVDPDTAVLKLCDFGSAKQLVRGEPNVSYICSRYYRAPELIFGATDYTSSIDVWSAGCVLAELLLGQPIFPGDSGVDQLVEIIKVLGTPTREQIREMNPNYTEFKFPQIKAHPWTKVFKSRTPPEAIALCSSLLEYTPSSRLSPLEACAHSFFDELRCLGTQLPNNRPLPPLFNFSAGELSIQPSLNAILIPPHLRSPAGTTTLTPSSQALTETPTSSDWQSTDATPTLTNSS
Chain of CDK5/p35 human (Q00535 whole entry): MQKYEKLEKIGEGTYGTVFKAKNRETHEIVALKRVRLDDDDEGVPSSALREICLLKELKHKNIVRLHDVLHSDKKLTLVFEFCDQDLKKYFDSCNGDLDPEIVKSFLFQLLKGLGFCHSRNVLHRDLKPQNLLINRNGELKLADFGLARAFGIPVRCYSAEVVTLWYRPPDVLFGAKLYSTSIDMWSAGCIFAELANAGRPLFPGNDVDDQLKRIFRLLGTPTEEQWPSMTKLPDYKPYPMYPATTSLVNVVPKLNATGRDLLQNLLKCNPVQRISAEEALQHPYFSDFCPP
Chain of CDK5/p35 human (Q15078 whole entry partner): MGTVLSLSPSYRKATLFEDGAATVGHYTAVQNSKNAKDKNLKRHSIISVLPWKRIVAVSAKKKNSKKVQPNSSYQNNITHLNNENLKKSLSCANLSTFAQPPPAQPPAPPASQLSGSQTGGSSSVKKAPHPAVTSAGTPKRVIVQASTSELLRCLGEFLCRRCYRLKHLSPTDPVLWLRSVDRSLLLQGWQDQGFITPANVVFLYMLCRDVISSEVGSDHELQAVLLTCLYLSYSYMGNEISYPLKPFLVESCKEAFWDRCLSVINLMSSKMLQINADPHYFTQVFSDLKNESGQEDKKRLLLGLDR
Chain of CDK7/cyclinH/MAT1 (h) (P50613 whole entry): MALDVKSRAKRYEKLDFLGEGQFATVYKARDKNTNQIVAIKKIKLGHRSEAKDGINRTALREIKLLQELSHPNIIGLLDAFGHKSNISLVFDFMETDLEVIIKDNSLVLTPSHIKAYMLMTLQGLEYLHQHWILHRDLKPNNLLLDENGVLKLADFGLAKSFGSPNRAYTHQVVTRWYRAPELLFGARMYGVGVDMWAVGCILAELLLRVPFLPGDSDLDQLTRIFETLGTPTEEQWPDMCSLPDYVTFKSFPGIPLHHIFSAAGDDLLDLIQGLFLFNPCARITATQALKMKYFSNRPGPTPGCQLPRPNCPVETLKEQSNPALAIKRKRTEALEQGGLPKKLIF
Chain of CDK7/cyclinH/MAT1 (h) (P51946 whole entry partner): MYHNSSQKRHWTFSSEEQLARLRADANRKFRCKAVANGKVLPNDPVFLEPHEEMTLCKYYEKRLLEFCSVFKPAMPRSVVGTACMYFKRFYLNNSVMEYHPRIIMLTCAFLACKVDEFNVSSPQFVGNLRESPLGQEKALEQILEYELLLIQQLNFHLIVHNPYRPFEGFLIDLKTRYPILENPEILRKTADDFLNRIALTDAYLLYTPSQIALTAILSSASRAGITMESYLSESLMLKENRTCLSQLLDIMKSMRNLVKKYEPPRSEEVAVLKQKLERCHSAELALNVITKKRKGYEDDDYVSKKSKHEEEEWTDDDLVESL
Chain of CDK7/cyclinH/MAT1 (h) (P51948 whole entry partner): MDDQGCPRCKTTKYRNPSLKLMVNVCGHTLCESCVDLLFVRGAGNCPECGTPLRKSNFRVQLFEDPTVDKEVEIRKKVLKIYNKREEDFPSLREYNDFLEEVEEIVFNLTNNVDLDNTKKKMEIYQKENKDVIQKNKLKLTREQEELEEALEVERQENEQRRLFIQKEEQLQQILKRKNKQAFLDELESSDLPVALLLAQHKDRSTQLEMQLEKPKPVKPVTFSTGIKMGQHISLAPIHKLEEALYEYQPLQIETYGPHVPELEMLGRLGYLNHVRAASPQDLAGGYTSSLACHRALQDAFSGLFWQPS

SMILES | C3.3 score (CDK2/cyclinA (h)) | IC50 (GSK-3α) | C3.2 score (CDK1/cyclinB (h)) | C3.5 score (CDK3/cyclinE (h)) | C3.6 score (CDK5/p35 human) | C3.4 score (CDK2/cyclinE (h)) | C3.8 score (CDK7/cyclinH/MAT1 (h)) | IC50 (GSK-3β) | C3.7 score (CDK6/cyclinD3 human) | C2 Score (Chang cells)
O=C1NCCc2cccc(c2)Nc2ncnc(n2)-c2ccnc(c2)CCCN2C[C@H](O)C[C@@H]12 [Compound 25] | 4 (Score 4 = >80% inhibition) | 10 to 100 nM | 3 (Score 3 = 60-80% inhibition) | 3 (Score 3 = 60-80% inhibition) | 2 (Score 2 = 30-60% inhibition) | 4 (Score 4 = >80% inhibition) | 2 (Score 2 = 30-60% inhibition) | 10 to 100 nM | 2 (Score 2 = 30-60% inhibition) | 
O=C1CCN2CCN(CC2)Cc2cccc(c2)Nc2ncnc(n2)-c2ccnc(c2)NCCN1 [Compound 19] | 4 (Score 4 = >80% inhibition) | 100 to 1000 nM | 4 (Score 4 = >80% inhibition) | 4 (Score 4 = >80% inhibition) | 3 (Score 3 = 60-80% inhibition) | 4 (Score 4 = >80% inhibition) | 2 (Score 2 = 30-60% inhibition) | 10 to 100 nM | 2 (Score 2 = 30-60% inhibition) | 
CN1CCCC(=O)NCCc2cccc(c2)Nc2ncnc(n2)-c2ccnc(c2)CCC1 [Compound 24] | 3 (Score 3 = 60-80% inhibition) | 100 to 1000 nM | 2 (Score 2 = 30-60% inhibition) | 2 (Score 2 = 30-60% inhibition) | 2 (Score 2 = 30-60% inhibition) | 3 (Score 3 = 60-80% inhibition) | 3 (Score 3 = 60-80% inhibition) | 10 to 100 nM | 1 (Score 1 = 10-30% inhibition) | 
O=C1CC2CCN(CCCc3cc(ccn3)-c3ncnc(n3)Nc3cccc(c3)CCN1)CC2 [Compound 27] | 3 (Score 3 = 60-80% inhibition) | 100 to 1000 nM | 2 (Score 2 = 30-60% inhibition) | 1 (Score 1 = 10-30% inhibition) | 2 (Score 2 = 30-60% inhibition) | 2 (Score 2 = 30-60% inhibition) | 1 (Score 1 = 10-30% inhibition) | 100 to 1000 nM | 1 (Score 1 = 10-30% inhibition) | 
O=C1NCCNc2cc(ccn2)-c2ncnc(n2)Nc2cccc(c2)CN2CCC[C@H]12 [Compound 18] | 4 (Score 4 = >80% inhibition) | 100 to 1000 nM | 3 (Score 3 = 60-80% inhibition) | 3 (Score 3 = 60-80% inhibition) | 2 (Score 2 = 30-60% inhibition) | 4 (Score 4 = >80% inhibition) | 2 (Score 2 = 30-60% inhibition) | 100 to 1000 nM | 1 (Score 1 = 10-30% inhibition) | 
O=C1NCCc2cccc(c2)Nc2ncnc(n2)-c2ccnc(c2)CCCN2CCCC1C2 (stereo not shown) [Compound 26] | 3 (Score 3 = 60-80% inhibition) | 10 to 100 nM | 1 (Score 1 = 10-30% inhibition) | 3 (Score 3 = 60-80% inhibition) | 2 (Score 2 = 30-60% inhibition) | 4 (Score 4 = >80% inhibition) | 2 (Score 2 = 30-60% inhibition) | 10 to 100 nM | 1 (Score 1 = 10-30% inhibition) | 

Second part, led by results:

C3.3 score (CDK2/cyclinA (h)) | IC50 (GSK-3α) | C3.2 score (CDK1/cyclinB (h)) | C3.5 score (CDK3/cyclinE (h)) | C3.6 score (CDK5/p35 human) | C3.4 score (CDK2/cyclinE (h)) | C3.8 score (CDK7/cyclinH/MAT1 (h)) | IC50 (GSK-3β) | C3.7 score (CDK6/cyclinD3 human) | SMILES | C2 Score (Chang cells)
2 (Score 2 = 30-60% inhibition) | < 10 nM |  |  |  |  |  |  |  | CC(C)N1CC(=O)NCCCc2cc(ccn2)-c2ncnc(n2)Nc2cccc(c2)C1 [Compound 65] | 3 (Score 3=60-80% increase)
 | < 10 nM |  |  |  |  |  |  |  | CN1CCCc2cc(ccc2F)-c2ncnc(n2)Nc2cccc(c2)CNC(=O)C1 [Compound 70] | 4 (Score 4=>80% increase in D-glucose incorporation)
 | < 10 nM |  |  |  |  |  |  |  | CN1CC(=O)N(C)CCCc2cc(ccn2)-c2ncnc(n2)Nc2cccc(c2)C1 [Compound 67] | 4 (Score 4=>80% increase in D-glucose incorporation)
